Assay results as given in ChEMBL document CHEMBL5537159, “Discovery and SAR of JTE-151: A Novel RORγ Inhibitor for Clinical Development” (J Med Chem, 2024).

Experiments:
[1] = Apparent permeability in human Caco-2 cells at 25 umol/L incubated for 2 hrs by LC/MS/MS analysis; format: ADME, cell-based; conditions: dose 25 µmol/L
[2] = MRT in CD(SD) rat at 10 mg/kg, po administered as single dose and measured after 24 hrs; format: ADME, organism-based; conditions: in vivo
[3] = Total body clearance in Beagle dog at 1 mg/kg, iv administered as single dose and measured after 24 hrs; format: ADME, organism-based, Canis lupus familiaris; conditions: in vivo
[4] = AUCinfinity in Beagle dog at 3 mg/kg, po administered as single dose and measured after 24 hrs; format: ADME, organism-based, Canis lupus familiaris; conditions: in vivo
[5] = Selectivity ratio of antagonist activity at human RORbeta to inhibition of RORgamma (unknown origin)
[6] = Selectivity ratio of antagonist activity at human SF1 to inhibition of RORgamma (unknown origin)
[7] = Selectivity ratio of antagonist activity at human PR to inhibition of RORgamma (unknown origin)
[8] = Selectivity ratio of antagonist activity at human FXR to inhibition of RORgamma (unknown origin)
[9] = Selectivity ratio of antagonist activity at human PPARalpha to inhibition of RORgamma (unknown origin)
[10] = Selectivity ratio of antagonist activity at human RARalpha to inhibition of RORgamma (unknown origin)
[11] = Selectivity ratio of antagonist activity at human RXRalpha to inhibition of RORgamma (unknown origin)
[12] = Selectivity ratio of agonist activity at mouse GR to inhibition of RORgamma (unknown origin)
[13] = Selectivity ratio of agonist activity at human FXR to inhibition of RORgamma (unknown origin)
[14] = Selectivity ratio of agonist activity at mouse LXRalpha to inhibition of RORgamma (unknown origin)
[15] = Selectivity ratio of agonist activity at human RARalpha to inhibition of RORgamma (unknown origin)
Adenosine receptor A1 = Adenosine receptor A1 (Homo sapiens, UniProt P30542); test: Inhibition of human Adenosine A1 receptor
Sequence of Adenosine receptor A1 (P30542 whole entry): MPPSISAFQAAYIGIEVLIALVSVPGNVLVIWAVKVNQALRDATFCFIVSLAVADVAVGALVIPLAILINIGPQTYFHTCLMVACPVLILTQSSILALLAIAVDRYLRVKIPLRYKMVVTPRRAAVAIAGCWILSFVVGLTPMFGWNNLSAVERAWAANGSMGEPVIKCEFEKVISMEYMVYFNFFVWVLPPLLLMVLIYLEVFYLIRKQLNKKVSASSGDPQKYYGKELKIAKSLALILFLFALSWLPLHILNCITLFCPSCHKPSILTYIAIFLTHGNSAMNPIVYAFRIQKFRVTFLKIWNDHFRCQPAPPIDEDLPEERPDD

[16] = biological target: Adrenergic receptor alpha-1 (Rattus norvegicus, UniProt P15823+P23944+P43140); test: Inhibition of rat adrenergic alpha1 receptor; format: protein assay
[17] = biological target: Adrenergic receptor alpha-2 (Rattus norvegicus, UniProt P22086+P19328+P22909); test: Inhibition of rat adrenergic alpha2 receptor; format: protein assay
[18] = biological target: Beta-1 adrenergic receptor (Homo sapiens, UniProt P08588); test: Inhibition of human adrenergic beta1 receptor
[19] = biological target: Beta-2 adrenergic receptor (Homo sapiens, UniProt P07550); test: Inhibition of human adrenergic beta2 receptor
Sequence of Beta-2 adrenergic receptor (P07550 whole entry): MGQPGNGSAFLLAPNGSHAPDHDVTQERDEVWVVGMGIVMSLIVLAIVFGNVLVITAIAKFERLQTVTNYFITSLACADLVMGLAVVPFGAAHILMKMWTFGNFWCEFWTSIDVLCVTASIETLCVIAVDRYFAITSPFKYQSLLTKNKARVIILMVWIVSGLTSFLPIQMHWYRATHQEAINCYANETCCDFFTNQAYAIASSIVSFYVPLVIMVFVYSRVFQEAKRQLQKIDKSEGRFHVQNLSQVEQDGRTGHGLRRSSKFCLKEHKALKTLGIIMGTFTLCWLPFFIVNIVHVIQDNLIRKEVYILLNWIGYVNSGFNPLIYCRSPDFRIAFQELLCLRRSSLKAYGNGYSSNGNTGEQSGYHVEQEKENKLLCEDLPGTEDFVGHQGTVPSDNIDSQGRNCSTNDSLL

[20] = biological target: Beta-3 adrenergic receptor (Homo sapiens, UniProt P13945); test: Inhibition of human adrenergic beta3 receptor
Sequence of Beta-3 adrenergic receptor (P13945 whole entry): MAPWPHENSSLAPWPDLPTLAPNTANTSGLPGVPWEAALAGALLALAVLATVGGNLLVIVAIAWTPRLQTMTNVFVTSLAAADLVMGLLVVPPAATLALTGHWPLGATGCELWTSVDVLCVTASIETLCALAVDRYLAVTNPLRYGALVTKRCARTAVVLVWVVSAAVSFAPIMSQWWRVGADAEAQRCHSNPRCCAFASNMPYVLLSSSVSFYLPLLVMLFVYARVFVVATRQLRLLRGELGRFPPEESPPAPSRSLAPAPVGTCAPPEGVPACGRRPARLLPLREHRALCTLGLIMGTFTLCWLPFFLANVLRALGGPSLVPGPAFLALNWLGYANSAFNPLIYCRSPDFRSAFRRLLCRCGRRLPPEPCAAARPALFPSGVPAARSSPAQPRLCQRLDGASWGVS

Cannabinoid receptor 1 = Cannabinoid receptor 1 (Homo sapiens, UniProt P21554); test: Inhibition of human CB1 receptor
Sequence of Cannabinoid receptor 1 (P21554 whole entry): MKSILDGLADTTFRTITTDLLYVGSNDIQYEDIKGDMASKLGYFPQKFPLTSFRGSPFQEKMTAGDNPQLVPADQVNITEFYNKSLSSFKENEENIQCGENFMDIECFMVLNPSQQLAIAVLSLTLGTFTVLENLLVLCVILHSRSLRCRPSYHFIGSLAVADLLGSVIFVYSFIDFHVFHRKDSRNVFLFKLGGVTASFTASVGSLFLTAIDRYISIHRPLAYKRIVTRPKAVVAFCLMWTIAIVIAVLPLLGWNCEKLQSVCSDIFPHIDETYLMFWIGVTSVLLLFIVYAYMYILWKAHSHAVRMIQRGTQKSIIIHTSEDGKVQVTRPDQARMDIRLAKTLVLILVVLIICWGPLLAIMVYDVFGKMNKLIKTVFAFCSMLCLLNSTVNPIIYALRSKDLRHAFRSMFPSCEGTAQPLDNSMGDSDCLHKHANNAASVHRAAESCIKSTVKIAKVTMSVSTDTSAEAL

D(1A) dopamine receptor = D(1A) dopamine receptor (Homo sapiens, UniProt P21728); test: Inhibition of human dopamine D1 receptor
[21] = Inhibition of rat GABA-B receptor
[22] = Inhibition of rat glutamate receptor
Histamine H1 receptor = Histamine H1 receptor (Homo sapiens, UniProt P35367); test: Inhibition of human histamine H1 receptor
Sequence of Histamine H1 receptor (P35367 whole entry): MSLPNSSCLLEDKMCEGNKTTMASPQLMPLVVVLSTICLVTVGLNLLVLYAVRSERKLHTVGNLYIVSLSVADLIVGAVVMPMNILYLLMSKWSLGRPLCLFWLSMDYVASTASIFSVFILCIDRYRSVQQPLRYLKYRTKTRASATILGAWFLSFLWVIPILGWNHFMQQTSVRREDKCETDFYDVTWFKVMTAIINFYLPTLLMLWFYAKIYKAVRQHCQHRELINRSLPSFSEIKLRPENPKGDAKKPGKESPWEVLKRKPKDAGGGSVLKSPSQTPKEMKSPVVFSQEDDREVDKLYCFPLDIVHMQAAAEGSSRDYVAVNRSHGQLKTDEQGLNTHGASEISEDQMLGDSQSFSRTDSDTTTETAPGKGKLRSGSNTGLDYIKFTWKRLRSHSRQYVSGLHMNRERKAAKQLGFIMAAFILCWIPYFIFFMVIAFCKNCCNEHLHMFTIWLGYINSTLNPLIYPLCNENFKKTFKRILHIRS

[23] = Inhibition of human nicotinic receptor
[24] = biological target: 5-hydroxytryptamine receptor 1A (Homo sapiens, UniProt P08908); test: Inhibition of human 5-HT1A receptor
[25] = biological target: 5-hydroxytryptamine receptor 2A (Homo sapiens, UniProt P28223); test: Inhibition of human 5-HT2A receptor
[26] = biological target: 5-hydroxytryptamine receptor 3A (Homo sapiens, UniProt P46098); test: Inhibition of human 5-HT3 receptor
Sequence of 5-hydroxytryptamine receptor 3A (P46098 whole entry): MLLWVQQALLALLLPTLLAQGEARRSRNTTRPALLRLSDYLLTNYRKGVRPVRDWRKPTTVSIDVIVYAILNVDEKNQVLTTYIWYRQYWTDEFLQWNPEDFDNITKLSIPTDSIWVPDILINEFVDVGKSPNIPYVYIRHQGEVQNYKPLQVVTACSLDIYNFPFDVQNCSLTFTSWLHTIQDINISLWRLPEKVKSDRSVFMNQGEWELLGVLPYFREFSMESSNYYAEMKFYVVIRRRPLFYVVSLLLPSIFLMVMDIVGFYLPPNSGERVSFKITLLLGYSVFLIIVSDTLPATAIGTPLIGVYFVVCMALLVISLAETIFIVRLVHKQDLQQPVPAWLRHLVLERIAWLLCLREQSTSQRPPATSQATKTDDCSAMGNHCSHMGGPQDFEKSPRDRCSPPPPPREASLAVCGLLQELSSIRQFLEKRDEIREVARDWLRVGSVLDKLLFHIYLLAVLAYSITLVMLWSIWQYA

Acetylcholinesterase = Acetylcholinesterase (Electrophorus electricus, UniProt O42275); test: Inhibition of Electric eel AChE
Sequence of Acetylcholinesterase (O42275 whole entry): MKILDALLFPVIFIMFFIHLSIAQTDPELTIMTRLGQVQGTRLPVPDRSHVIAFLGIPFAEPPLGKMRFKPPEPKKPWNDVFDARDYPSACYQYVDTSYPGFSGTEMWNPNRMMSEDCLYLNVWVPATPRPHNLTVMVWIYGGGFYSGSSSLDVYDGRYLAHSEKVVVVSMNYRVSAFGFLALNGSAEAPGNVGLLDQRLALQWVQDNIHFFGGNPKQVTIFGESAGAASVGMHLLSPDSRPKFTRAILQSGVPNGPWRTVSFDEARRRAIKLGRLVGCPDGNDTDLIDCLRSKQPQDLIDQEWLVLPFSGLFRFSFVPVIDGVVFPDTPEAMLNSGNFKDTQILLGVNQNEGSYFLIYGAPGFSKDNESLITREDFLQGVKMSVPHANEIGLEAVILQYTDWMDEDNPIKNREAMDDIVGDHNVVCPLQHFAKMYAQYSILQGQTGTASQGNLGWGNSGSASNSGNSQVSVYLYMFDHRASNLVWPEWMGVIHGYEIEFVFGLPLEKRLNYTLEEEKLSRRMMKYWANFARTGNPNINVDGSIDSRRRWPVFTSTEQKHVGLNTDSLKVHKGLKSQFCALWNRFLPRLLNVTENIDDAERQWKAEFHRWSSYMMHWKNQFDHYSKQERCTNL

[27] = Inhibition of rat nitric oxide synthase
Cytochrome P450 2C19 = Cytochrome P450 2C19 (Homo sapiens, UniProt P33261); test: Inhibition of CYP2C19 in human liver microsomes; format: ADME, Microsome
Sequence of Cytochrome P450 2C19 (P33261 whole entry): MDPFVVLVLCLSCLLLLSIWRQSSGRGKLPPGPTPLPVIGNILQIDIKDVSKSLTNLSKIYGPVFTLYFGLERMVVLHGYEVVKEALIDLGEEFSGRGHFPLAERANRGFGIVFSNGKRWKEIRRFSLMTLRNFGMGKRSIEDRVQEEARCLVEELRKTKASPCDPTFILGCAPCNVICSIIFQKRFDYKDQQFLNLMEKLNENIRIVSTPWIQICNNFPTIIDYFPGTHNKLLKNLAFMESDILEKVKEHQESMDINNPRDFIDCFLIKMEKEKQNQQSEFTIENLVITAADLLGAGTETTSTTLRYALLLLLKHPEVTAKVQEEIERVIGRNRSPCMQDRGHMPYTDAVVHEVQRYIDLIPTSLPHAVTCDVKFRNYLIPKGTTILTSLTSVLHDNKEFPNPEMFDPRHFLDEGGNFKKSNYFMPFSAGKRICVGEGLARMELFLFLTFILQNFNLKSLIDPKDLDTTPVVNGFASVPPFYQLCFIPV

Cytochrome P450 3A4 = Cytochrome P450 3A4 (Homo sapiens, UniProt P08684); test: Inhibition of CYP3A4 in human liver microsomes using testosterone as substrate; format: ADME, Microsome
Sequence of Cytochrome P450 3A4 (P08684 whole entry): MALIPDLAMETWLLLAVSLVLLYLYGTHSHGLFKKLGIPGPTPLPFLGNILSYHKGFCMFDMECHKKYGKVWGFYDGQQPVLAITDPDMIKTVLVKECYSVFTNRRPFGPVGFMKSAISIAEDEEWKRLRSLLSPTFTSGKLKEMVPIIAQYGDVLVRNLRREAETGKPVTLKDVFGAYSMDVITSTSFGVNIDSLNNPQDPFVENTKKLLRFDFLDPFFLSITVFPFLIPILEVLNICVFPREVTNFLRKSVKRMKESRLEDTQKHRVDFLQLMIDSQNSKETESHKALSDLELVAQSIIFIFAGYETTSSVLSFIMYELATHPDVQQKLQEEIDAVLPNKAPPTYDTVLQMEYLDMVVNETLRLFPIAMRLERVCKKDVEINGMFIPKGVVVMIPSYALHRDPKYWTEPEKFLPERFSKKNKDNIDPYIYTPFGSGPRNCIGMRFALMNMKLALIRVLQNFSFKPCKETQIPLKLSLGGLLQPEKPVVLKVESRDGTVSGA

Cytochrome P450 3A5 = Cytochrome P450 3A5 (Homo sapiens, UniProt P20815); test: Inhibition of CYP3A5 in human liver microsomes using testosterone as substrate; format: ADME, Microsome
Sequence of Cytochrome P450 3A5 (P20815 whole entry): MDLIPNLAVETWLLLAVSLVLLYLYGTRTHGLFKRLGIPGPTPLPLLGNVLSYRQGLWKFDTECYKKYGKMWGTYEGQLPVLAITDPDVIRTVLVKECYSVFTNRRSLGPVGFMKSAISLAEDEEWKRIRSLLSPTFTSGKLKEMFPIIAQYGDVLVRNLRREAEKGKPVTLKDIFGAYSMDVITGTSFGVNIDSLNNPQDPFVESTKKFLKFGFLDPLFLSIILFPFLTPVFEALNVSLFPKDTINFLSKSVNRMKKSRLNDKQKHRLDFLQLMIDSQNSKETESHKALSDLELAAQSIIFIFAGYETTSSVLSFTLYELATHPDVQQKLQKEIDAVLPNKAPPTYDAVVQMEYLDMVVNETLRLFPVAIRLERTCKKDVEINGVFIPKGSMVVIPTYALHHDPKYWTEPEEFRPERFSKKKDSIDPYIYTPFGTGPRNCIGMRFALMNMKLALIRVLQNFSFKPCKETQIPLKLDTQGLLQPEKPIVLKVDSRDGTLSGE

[28] = Cardiotoxicity in Beagle dog assessed as QTcF prolongation upto 100 mg/kg, po bid measured for 24 hrs; format: toxicity, organism-based, Canis lupus familiaris; conditions: in vivo
[29] = Genotoxicity in Salmonella typhimurium TA1535 at 188 to 5000 ug in absence of S9 fraction by bacterial reverse mutation test; format: toxicity, Salmonella enterica subsp. enterica serovar Typhimurium; conditions: in vivo; dose 188-5000 µg
[30] = Genotoxicity in Salmonella typhimurium TA98 at 47 to 1500 ug in presence of S9 fraction by bacterial reverse mutation test; format: toxicity, subcellular, Salmonella enterica subsp. enterica serovar Typhimurium; conditions: dose 47-1500 µg
[31] = Genotoxicity in Salmonella typhimurium TA1537 at 23 to 750 ug in absence of S9 fraction by bacterial reverse mutation test; format: toxicity, Salmonella enterica subsp. enterica serovar Typhimurium; conditions: in vivo; dose 23-750 µg
[32] = Toxicity in CHL cells assessed as chromosomal aberration at 60 to 80 ug/ml incubated for 6 hrs in absence of S9 fraction; format: cell-based, Cricetulus griseus; conditions: chinese hamster, dose 60-80 µg/ml
[33] = Toxicity in CHL cells assessed as chromosomal aberration at 30 to 50 ug/ml incubated for 24 hrs in presence of S9 fraction; format: subcellular, Cricetulus griseus; conditions: chinese hamster, s9, 24 h, dose 30-50 µg/ml
[34] = Toxicity in Sprague-Dawley rat assessed as development-limiting toxicity at 30 to 300 mg/kg, po administered once daily and measured on day 1,14 and 27; format: organism-based; conditions: in vivo, 648 h, dose 30-300 mg/kg, time 27 day
[35] = Cmax in human at 60 […], po administered as single dose and measured upto 144 hrs; format: ADME, organism-based; conditions: in vivo
[36] = Cmax in human at 400 […], po administered as single dose and measured upto 144 hrs; format: ADME, organism-based; conditions: in vivo
[37] = Tmax in human at 100 […], po administered as single dose and measured upto 144 hrs; format: ADME, organism-based; conditions: in vivo
[38] = Tmax in human at 600 […], po administered as single dose and measured upto 144 hrs; format: ADME, organism-based; conditions: in vivo
[39] = Tmax in human at 1000 […], po administered as single dose and measured upto 144 hrs; format: ADME, organism-based; conditions: in vivo
[40] = AUClast in human at 60 mg/kg, po administered as single dose and measured upto 144 hrs; format: ADME, organism-based; conditions: in vivo
[41] = AUClast in human at 100 […], po administered as single dose and measured upto 144 hrs; format: ADME, organism-based; conditions: in vivo
[42] = AUClast in human at 600 mg/kg, po administered as single dose and measured upto 144 hrs; format: ADME, organism-based; conditions: in vivo
[43] = AUClast in human at 1000 mg/kg, po administered as single dose and measured upto 144 hrs; format: ADME, organism-based; conditions: in vivo
[44] = Elimination half life in human at 1600 mg/kg, po administered as single dose and measured upto 144 hrs; format: ADME, organism-based; conditions: in vivo, read-out: beta t1/2 (converted)

Cc1ccc(NC(=O)C[C@H](CCC(=O)O)c2noc([C@H]3C[C@@H](CC(C)(C)C)C3)c2C2CC2)c(Cl)c1
Papp at 2 h, 25 µM [1]: 22.3 ×10⁻⁶ cm/s
MRT [2]: 5.6 h
clearance [3]: 0.5 mL/min/kg
AUC(0-inf) [4]: 118 µM·h
Selectivity ratio [5]: > 100
Selectivity ratio [6]: > 100
Selectivity ratio [7]: > 100
Selectivity ratio [8]: > 100
Selectivity ratio [9]: > 100
Selectivity ratio [10]: > 100
Selectivity ratio [11]: > 100
Selectivity ratio [12]: > 100
Selectivity ratio [13]: > 100
Selectivity ratio [14]: > 100
Selectivity ratio [15]: > 100
IC50 (Adenosine receptor A1): > 10 µM
IC50 [16]: > 10 µM
IC50 [17]: > 10 µM
IC50 [18]: > 10 µM
IC50 [19]: > 10 µM
IC50 [20]: > 10 µM
IC50 (Cannabinoid receptor 1): > 10 µM
IC50 (D(1A) dopamine receptor): 6.2 µM
IC50 [21]: > 10 µM
IC50 [22]: > 10 µM
IC50 (Histamine H1 receptor): > 10 µM
IC50 [23]: > 10 µM
IC50 [24]: > 10 µM
IC50 [25]: > 10 µM
IC50 [26]: > 10 µM
IC50 (Acetylcholinesterase): > 10 µM
IC50 [27]: > 10 µM
IC50 (Cytochrome P450 2C19): > 10 µM
IC50 (Cytochrome P450 3A4): > 10 µM
IC50 (Cytochrome P450 3A5): > 10 µM
Activity [28]: Non-Toxic
Activity [29]: Non-Toxic
Activity [30]: Non-Toxic
Activity [31]: Non-Toxic
Activity [32]: Non-Toxic
Activity [33]: Non-Toxic
Activity [34]: Non-Toxic
Cmax [35]: 2260 ng/mL
Cmax [36]: 17500 ng/mL
Tmax [37]: 3.03 h
Tmax [38]: 3 h
Tmax [39]: 3.5 h
AUC(0-t) at 144 h [40]: 11000 ng·h/mL
AUC(0-t) at 144 h [41]: 21200 ng·h/mL
AUC(0-t) at 144 h [42]: 140000 ng·h/mL
AUC(0-t) at 144 h [43]: 241000 ng·h/mL
half-life [44]: 10.7 h
